According to PubChem BioAssay AID248 (DTP/NCI, 2004):
Values joined by “and” are separate entries in the source; they are usually repeats but may differ in a detail not shown here. Equal entries are not always repeated. Toxic doses and inconclusive results are not listed. Rule as the data show it: active = T/C of 150% or more; inactive = T/C below 125%.

System: L1210 leukemia ip in BDF1 mice, survival T/C
Experiment: NCI In Vivo Anticancer Drug Screen. Data for tumor model L1210 Leukemia (intraperitoneal) in B6D2F1 (BDF1) mice
Settings: endpoint: mean survival time, higher = longer survival
In short: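 In this screen, tumor-bearing mice given compound are compared to those given vehicle, and their survival values are reported as a treated-to-control quotient.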

[1] = dose: 100.0 mg/kg/injection, schedule: Q04DX003 (ip), vehicle: saline with Tween-80
[2] = dose: 200.0 mg/kg/injection, schedule: Q04DX003 (ip), vehicle: saline with Tween-80
[3] = dose: 400.0 mg/kg/injection, schedule: Q04DX003 (ip), vehicle: saline with Tween-80
[4] = dose: 100.0 mg/kg/injection, schedule: Q01DX009 (ip), vehicle: saline with Tween-80
[5] = dose: 200.0 mg/kg/injection, schedule: Q01DX009 (ip), vehicle: saline with Tween-80
[6] = dose: 400.0 mg/kg/injection, schedule: Q01DX009 (ip), vehicle: saline with Tween-80
[7] = dose: 50.0 mg/kg/injection, schedule: Q01DX001 (ip), vehicle: saline
[8] = dose: 100.0 mg/kg/injection, schedule: Q01DX001 (ip), vehicle: saline
[9] = dose: 200.0 mg/kg/injection, schedule: Q01DX001 (ip), vehicle: saline
[10] = dose: 400.0 mg/kg/injection, schedule: Q01DX001 (ip), vehicle: saline
[11] = dose: 100.0 mg/kg/injection, schedule: Q01DX001 (ip), vehicle: Klucel (hydroxypropylcellulose) (HPC)
[12] = dose: 200.0 mg/kg/injection, schedule: Q01DX001 (ip), vehicle: Klucel (hydroxypropylcellulose) (HPC)
[13] = dose: 400.0 mg/kg/injection, schedule: Q01DX001 (ip), vehicle: Klucel (hydroxypropylcellulose) (HPC)
[14] = dose: 100.0 mg/kg/injection, schedule: Q04DX002 (ip), vehicle: saline with Tween-80
[15] = dose: 200.0 mg/kg/injection, schedule: Q04DX002 (ip), vehicle: saline with Tween-80
[16] = dose: 400.0 mg/kg/injection, schedule: Q04DX002 (ip), vehicle: saline with Tween-80

Measured: T/C

COc1ccc([N+](=O)[O-])cc1NS(=O)(=O)c1ccc(C)cc1
inactive: dose: 50.0 mg/kg/injection, schedule: Q04DX003 (ip), vehicle: saline with Tween-80 95 % of control | [1] 94 % of control and 90 % of control | [2] 86 % of control and 92 % of control | [3] 92 % of control

CC1OCC(C)C(C)(C)O1 (centres undefined)
inactive: dose: 50.0 mg/kg/injection, schedule: Q01DX009 (ip), vehicle: acetone 100 % of control | dose: 100.0 mg/kg/injection, schedule: Q01DX009 (ip), vehicle: acetone 90 % of control | dose: 100.0 mg/kg/injection, schedule: Q04DX003 (ip), vehicle: acetone 112 % of control | dose: 200.0 mg/kg/injection, schedule: Q01DX009 (ip), vehicle: acetone 89 % of control | dose: 200.0 mg/kg/injection, schedule: Q04DX003 (ip), vehicle: acetone 108 % of control | dose: 400.0 mg/kg/injection, schedule: Q04DX003 (ip), vehicle: acetone 103 % of control

CCCC(C)OS(=O)(=O)c1ccc(N)cc1 (centres undefined)
inactive: dose: 100.0 mg/kg/injection, schedule: Q01DX009 (ip), vehicle: Klucel (hydroxypropylcellulose) (HPC) 113 % of control | dose: 200.0 mg/kg/injection, schedule: Q01DX009 (ip), vehicle: Klucel (hydroxypropylcellulose) (HPC) 95 % of control

CS(=O)(=O)C(=Cc1ccccc1Cl)S(C)(=O)=O
inactive: [4] 92 % of control | [5] 100 % of control | [6] 101 % of control

O=C(c1ccccc1)C1C(C(=O)c2ccccc2)C(c2ccccc2)N(c2ccccc2)C1c1ccccc1 (centres undefined)
inactive: [7] 94 % of control | [8] 94 % of control | [9] 97 % of control | [10] 105 % of control

CCOCCN=Cc1ccccc1O.CCOCCN=Cc1ccccc1O.[Co]
inactive: [7] 100 % of control | [8] 98 % of control | [9] 96 % of control

COc1ccccc1-n1c(O)c(N=Nc2ccccc2C)c(=O)n(-c2ccccc2)c1=S
inactive: [11] 110 % of control | [12] 96 % of control | [13] 96 % of control

O=C(Nc1cc(NC(=O)Nc2cccc(C3=NCCN3)c2)cc(C(=O)O)c1)Nc1cccc(C2=NCCN2)c1
inactive: dose: 15.0 mg/kg/injection, schedule: Q01DX Z (ip), vehicle: carboxymethylcellulose (CMC) 96 % of control | dose: 30.0 mg/kg/injection, schedule: Q01DX Z (ip), vehicle: carboxymethylcellulose (CMC) 96 % of control | dose: 60.0 mg/kg/injection, schedule: Q01DX Z (ip), vehicle: carboxymethylcellulose (CMC) 94 % of control | dose: 120.0 mg/kg/injection, schedule: Q01DX Z (ip), vehicle: carboxymethylcellulose (CMC) 100 % of control and 106 % of control | dose: 240.0 mg/kg/injection, schedule: Q01DX Z (ip), vehicle: carboxymethylcellulose (CMC) 104 % of control

Cc1ccc(S(=O)(=O)N2CCOCCOCCOc3ccc4ccccc4c3-c3c(ccc4ccccc34)OCCOCC2)cc1
inactive: dose: 100.0 mg/kg/injection, schedule: Q01DX001 (ip), vehicle: saline with Tween-80 95 % of control | dose: 200.0 mg/kg/injection, schedule: Q01DX001 (ip), vehicle: saline with Tween-80 88 % of control | dose: 400.0 mg/kg/injection, schedule: Q01DX001 (ip), vehicle: saline with Tween-80 95 % of control

NC(=O)NC1CCCC1
inactive: [1] 93 % of control | [2] 89 % of control | [3] 93 % of control

CCc1noc(CC)c1CC1=C2CCC3(C)CCC(C)(C)CC3C2(C)CCC1=O (centres undefined)
inactive: dose: 100.0 mg/kg/injection, schedule: Q01DX001 (ip), vehicle: other 96 % of control | [4] 93 % of control | dose: 200.0 mg/kg/injection, schedule: Q01DX001 (ip), vehicle: other 94 % of control | [5] 91 % of control | dose: 400.0 mg/kg/injection, schedule: Q01DX001 (ip), vehicle: other 97 % of control | [6] 90 % of control

O=C1OC(c2cccc(Cl)c2)=N/C1=C\c1ccc(O)cc1
inactive: [14] 118 % of control | [15] 100 % of control | [16] 104 % of control

O=C([O-])c1ccccc1[I+]c1ccc(C2CCCCC2)cc1
inactive: [7] 100 % of control | [8] 100 % of control | [9] 105 % of control | [10] 103 % of control

CCN1/C(=C/C(C)=C/c2sc3ccccc3[n+]2CC)Sc2ccccc21
inactive: dose: 1.25 mg/kg/injection, schedule: Q01DX001 (ip), vehicle: other 111 % of control | dose: 2.5 mg/kg/injection, schedule: Q01DX001 (ip), vehicle: other 97 % of control | dose: 5.0 mg/kg/injection, schedule: Q01DX001 (ip), vehicle: other 103 % of control | dose: 25.0 micrograms/kg/injection, schedule: Q01DX001 (ip), vehicle: saline 98 % of control | dose: 25.0 micrograms/kg/injection, schedule: Q01DX009 (ip), vehicle: Klucel (hydroxypropylcellulose) (HPC) 100 % of control | dose: 50.0 micrograms/kg/injection, schedule: Q01DX001 (ip), vehicle: saline 93 % of control | dose: 50.0 micrograms/kg/injection, schedule: Q01DX009 (ip), vehicle: Klucel (hydroxypropylcellulose) (HPC) 101 % of control | dose: 100.0 micrograms/kg/injection, schedule: Q01DX001 (ip), vehicle: saline 104 % of control | dose: 100.0 micrograms/kg/injection, schedule: Q01DX009 (ip), vehicle: Klucel (hydroxypropylcellulose) (HPC) 108 % of control | dose: 200.0 micrograms/kg/injection, schedule: Q01DX001 (ip), vehicle: saline 96 % of control | dose: 200.0 micrograms/kg/injection, schedule: Q01DX009 (ip), vehicle: Klucel (hydroxypropylcellulose) (HPC) 104 % of control | dose: 200.0 micrograms/kg/injection, schedule: Q01DX015 (ip), vehicle: saline 105 % of control | dose: 400.0 micrograms/kg/injection, schedule: Q01DX009 (ip), vehicle: Klucel (hydroxypropylcellulose) (HPC) 97 % of control

O=C(O)C(O)C(O)C(O)C(O)CO.O=C(O)C(O)C(O)C(O)C(O)CO.O=C(O)C(O)C(O)C(O)C(O)CO.[Ga] (centres undefined)
inactive: [7] 101 % of control | [8] 103 % of control | [9] 112 % of control | [10] 100 % of control

CC(=O)OCC(Br)C(Br)COC(C)=O (centres undefined)
inactive: dose: 100.0 mg/kg/injection, schedule: Q01DX009 (ip), vehicle: saline 98 % of control | dose: 200.0 mg/kg/injection, schedule: Q01DX009 (ip), vehicle: saline 95 % of control | dose: 400.0 mg/kg/injection, schedule: Q01DX009 (ip), vehicle: saline 103 % of control

C/C(CC(O)(C(F)(F)Cl)C(F)(F)Cl)=N\O
inactive: [4] 92 % of control | [1] 107 % of control | [5] 97 % of control | [2] 93 % of control | [3] 93 % of control

Cc1cccc(C(=O)O)n1.[Cu+2]
inactive: dose: 5.0 mg/kg/injection, schedule: Q01DX001 (ip), vehicle: saline 103 % of control | dose: 10.0 mg/kg/injection, schedule: Q01DX001 (ip), vehicle: saline 113 % of control

CCNC(=O)NC(C(=O)OCC)C(=O)OCC
inactive: [11] 107 % of control | [12] 98 % of control | [13] 90 % of control

Cc1cccc(NC(=O)c2ccccc2)n1
inactive: [1] 97 % of control | [2] 95 % of control | [3] 92 % of control

O=[N+]([O-])c1ccc(O)c(C2OCCCO2)c1
inactive: [8] 101 % of control | [9] 98 % of control | [10] 101 % of control

CC(=O)N(c1ccncc1)c1ccc([N+](=O)[O-])cc1
inactive: dose: 50.0 mg/kg/injection, schedule: Q01DX009 (ip), vehicle: saline with Tween-80 94 % of control | [4] 97 % of control and 107 % of control | [14] 105 % of control and 108 % of control | [1] 98 % of control | [5] 94 % of control and 110 % of control | [15] 105 % of control and 109 % of control | [2] 98 % of control | [16] 92 % of control | [3] 104 % of control

CCOC(=O)C(NC(=O)NS(=O)(=O)c1ccc(C)cc1)C(=O)OCC
inactive: [11] 91 % of control | [12] 92 % of control | [13] 91 % of control

CCOC(=O)C[n+]1ccccc1Br
inactive: dose: 50.0 mg/kg/injection, schedule: Q01DX015 (ip), vehicle: water 90 % of control | dose: 100.0 mg/kg/injection, schedule: Q01DX015 (ip), vehicle: water 100 % of control

CC1(C)CC(OP(=O)(CCl)OC2CC(C)(C)N(O)C(C)(C)C2)CC(C)(C)N1O
inactive: dose: 100.0 mg/kg/injection, schedule: Q04DX002 (ip), vehicle: water 97 % of control | dose: 200.0 mg/kg/injection, schedule: Q04DX002 (ip), vehicle: water 97 % of control

C=CCc1cnc(C(F)(F)F)[nH]c1=O
inactive: dose: 25.0 mg/kg/injection, schedule: Q01DX001 (ip), vehicle: Klucel (hydroxypropylcellulose) (HPC) 93 % of control | dose: 50.0 mg/kg/injection, schedule: Q01DX001 (ip), vehicle: Klucel (hydroxypropylcellulose) (HPC) 94 % of control | [11] 94 % of control
